Reference: patent US20110152218A1, “CRYSTALLINE PHOSPHOLIPID, METHOD FOR ITS PRODUCTION AND USE IN TREATING DAMAGED TISSUE” (priority 2008, published 2011)

How the values were obtained:
HPMC [1] = test: HPMC ATP bioluminescence assay; type: cell-based, human; conditions: 72 hours; single well; over the tested concentrations
Procedure: The viability of HPMC after stimulation with FCS, phospholipid prepared according to Example 1 (Vibrated and Non-vibrated), lysophosphatidic acid (LPA), DPPC, DPPC/LPA, POPC, Curosurf, egg-PG (EPG) and the three Intralipid™ products was determined using an ATP assay. This assay measures the light emitted during the ATP dependant oxidation of luciferin in order to accurately quantify the ATP concentration.
As described in Example 3, primary HPMC are isolated from omental tissue biopsies donated by consenting patients undergoing elective abdominal surgery. Cells are grown to approximately 60% confluence in 96 well plates (Falcon) and used at passage 2. All cells are growth arrested in serum free M199 for 24 hours prior to use.
An ATP Bioluminescence Assay Kit CLS II (Roche Diagnostics, Cat No 1 699 695, 11857300) was used. It contains ATP Standard, Luciferase and distilled water. A 10 mM EDTA solution was prepared by dissolving 1.8612 g EDTA (Fischer Scientific, Code D/0650/60, Batch 0447430, Mr-372.24) in 500 ml H2O (or 3.7224 g in 1 litre). A BAC-extract solution was prepared by dissolving 1 g Benzalkonium Chloride (Sigma-Aldrich, Cat:-23, 442-7, Lot S22104-334) in 1 litre of 10 mM EDTA. […]
To mix, rotate the bottle carefully. • 2) Make up an ATP standard solution having a base concentration of 1.65 μM ATP. […] Use distilled water as the control. • 4) Set the Fluostar Optima plate reader to measure luminescence. Set the Fluostar Optima plate reader pump to inject 20 μl of luciferase into each of the required wells. • 5) Place the plate into the plate reader and measure the relative light units (RLU). • 6) Prepare a standard curve such as that shown in FIG. 16 by plotting a graph of RLU against ATP concentration.
96 well plates from the HPMC proliferation study were defrosted. […] The ATP concentrations were calculated from the RLU of the samples using the standard curve. As an alternative to using an ATP standard curve, data can be normalised to the un-stimulated control and expressed as “ATP (% of control)”.

HPMC [2] = test: Alamar Blue assay of HPMC proliferation in various tested media; type: cell-based, human; conditions: 50/50 v/v Hartmanns solution and supplemented M199; 48 hours; single well
Procedure: The suitability of various media for use in forming a dispersion of phospholipid prepared as described in Example 1 or of DPPC was investigated. The Alamar Blue™ assay of HPMC proliferation described in Example 3 was repeated using a single well of cells for each stimulation with a positive control of FCS dispersed in the tested medium, a negative control of the tested medium, and a phospholipid dispersed in the tested medium. The results obtained after 48 hours are shown in FIGS. 13A-13J and discussed below.

[3] = system: human peritoneal mesothelial cell (HPMC); test: HPMC proliferation, Alamar Blue and MTT assay; type: cell-based; conditions: 48 hours and 72 hours; over the tested concentrations in supplemented M199
Procedure: The effect of a phospholipid prepared as described in Example 1 (and/or its constituent compounds) to induce human peritoneal mesothelial cell proliferation was assessed using an Alamar Blue™ assay and an MTT assay.
The Alamar Blue™ assay is designed to measure the proliferation of various cell types by measuring the ability of the cells to metabolise and reduce a REDOX indicator (Alamar Blue™). Reduction of the REDOX indicator results in a change in its fluorescent activity. Therefore the fluorescent activity measured is proportional to cell proliferation.
The MTT Assay measures the proliferations of various cells and is based on the mitochondrial conversion of tetrazolium salt 3-[4,5-dimethyl-thiazol-2-yl]-2,5-diphenyltetrazium bromide (MTT), into an insoluble formazan salt. The resultant colour change is directly related to the number of viable cells.
As described in Morgan L W et al (“Glucose degradation products (GDP) retard re-mesothelialisation independently of D-glucose concentration.” Kidney Int 64:1854-1866, 2003), primary HPMC are isolated from omental tissue biopsies donated by consenting patients undergoing elective abdominal surgery. Cells were grown to approximately 60% confluence in 96 well plates (Falcon) and used at passage 2. All cells were growth arrested in serum free M199 for 24 hours prior to use.
The supplemented M199 medium was prepared as follows. Earle's salt medium M199 was supplemented with 100μ/ml penicillin, 100 μg/ml streptomycin, 2 mM glutamine, 5 μg/ml insulin, 5 μg/ml transferrin and 0.4 μg/ml hydrocortisone and 2 mmol/L N-2-hydroxyethylpiperazine-N′-2ethanesulfonic acid.
The phospholipid prepared as described in Example 1 was prepared as follows. […]
The growth medium was aspirated from each well and then the well was washed once using 200 μl per well of supplemented M199. […] The fluorescent activity of Alamar Blue™ at 540 nm (wavelength) was measured using a Dynex Revalation 96-multiwell plate reader. […]

SMILES: CCCCCCCCCCCCCCCC(=O)OC[C@H](COP(=O)([O-])OCC[N+](C)(C)C)OC(=O)CCCCCCCCCCCCCCC [DPPC, Dipalmitoyl phosphatidyl choline]
- HPMC proliferation by ATP assay (ATP % of control) compared to the negative control (HPMC [1]): no increase of HPMC proliferation
- HPMC proliferation response in the first tested medium (HPMC [2]): not as great as DPPC in supplemented M199 by itself
- HPMC proliferation compared to the negative control [3]: no significant stimulation of HPMC proliferation
